This is an account of results in doi:10.1101/2025.03.03.641193, “Trihydroxybenzaldoximes are redox cycling inhibitors of ThDP-dependent DXP synthase” (bioRxiv, 2025).

Read-outs that look alike come from different tables or passages of the source.

In assay [1] the target is T1, EcDXPS (Escherichia coli, UniProt P77488).
T1 construct: made in house
The conditions noted are these: cited from earlier work; for inhibitory activity against DXPS: source not stated at the place, probably ref 32.

In another assay the target is T2, DXPS (Escherichia coli, UniProt P77488).
T2 construct: made in house
The assay can be described thus: NMR detection of chemical reduction by DXPS and substrates (LR 1H-15N HSQC). In kind it is biochemical. The conditions noted are these: 500 μM. The method, then:
In order to determine if 1 is reduced by the C2-α-carbanion on DXPS, we prepared the ^15N-labeled analog 8 aerobically in Tris pH 8 (to bias the oxidized form, Fig S7) and then transferred this mixture to the anaerobic chamber to minimize O2-mediated re-oxidation of 8 following reduction by the C2-α-carbanion (Fig S18). […] Reactions containing 8 (500 μM) were then initiated by the addition of DXPS (1 μM) and ^13C-labeled pyruvate (2 mM), in the presence or absence of 500 μM GAP (Fig 8B–E, S22–23). Samples were then quenched by boiling and vortexing before being transferred into degassed NMR tubes and sealed with rubber septa and parafilm to preclude reoxygenation. […] Further evidence supporting Model 2 in which 1 induces LThDP decarboxylation and promotes substrate wasting, was obtained by detection of products using 1D ^1H-NMR which selectively detects H{^13C} and H3{^13C} spectra via a proton multiplicity filter (Fig 8, S23–24). […] Production of DXP relative to acetate in the presence of D-GAP was reduced in the presence of 8 (Fig S24), consistent with a mechanism in which 1 competes with GAP as an acceptor and in agreement with the previously characterized competitive mechanism of inhibition with respect to D-GAP.[32]
Reaction buffer (50 mM Tris pH 8, 2 mM MgCl2, 100 mM NaCl, 1 mM ThDP, 10% D2O) was prepared aerobically. Oxime 8 (500 μM) was added, and the mixture was incubated at 4 °C for 30 min. Reaction mixtures were then brought into the anaerobic chamber and allowed to deoxygenate ~2 hrs. Reactions were initiated by addition of 1 μM DXPS with 2 mM sodium pyruvate-^13C3 or 2 mM sodium pyruvate-^13C3 and 500 μM GAP. Reaction mixtures were incubated at 25 °C for 1 hr. Reactions were quenched by boiling for 5 min at 95 °C followed by vortexing for 15 seconds. The quenched mixtures were transferred to labeled NMR tubes which were sealed with rubber septa and parafilm prior to removal from the chamber to exclude oxygen once removed from the chamber. 2D Multiple Bond Long Range (LR) ^1H-^15N-HSQC and 1D ^1H detected H{^13C} and H3{^13C} spectra via a proton multiplicity filter which selects for ^13C nuclei attached to an odd number of protons were acquired on a Bruker Avance NEO 600 MHz spectrometer equipped with a TCI cryogenic probe equipped with z-gradients with a cryo-cooled ^13C preamplifier, resulting in high sensitivity for ^13C detection. Spectra were acquired at 600 MHz (^1H), 150 MHz (^13C), and 61 MHz (^15N) at 25 °C. Parameters for various categories of spectra are as follows: (LR ^1H-^15N HSQC): 16 scans and 150 ms acquisition time (t2) per FID and a ^1H spectral width of 15.1376 ppm; since the chemical shifts of N^R (δ 335) and N^O (δ 374) are separated by ~ 40 ppm, data collection times were optimized by positioning the ^15N carrier at 354 ppm and using an ^15N spectral width of 25 ppm and an acquisition time of 13 ms along ^15N (t1); with a 1.5 s relaxation delay between successive scans, the total data collection period per 2D spectrum was 20 minutes. ^1H detected H{^13C} and H3{^13C} filtered 1D spectra: 200 ms acquisition time/FID, and a 5s relaxation day between successive scans, 1.5 minutes per spectrum. Controls were also prepared in which reactions were initiated by addition of 1 μM DXPS with no substrates, as well as 2 mM ^13C-labeled pyruvate + 500 μM GAP with DXPS dialysis buffer in place of enzyme. A “mixed” redox state control of 1 (500 μM) was prepared aerobically in 50 mM HEPES pH 8 with 10% D2O.

For the next assay, the target named is T3, R478A DXPS (Escherichia coli, UniProt P77488, R478A).
T3 construct: made in house
The conditions noted are these: EcR478A vs WT; cited from earlier work.

The target of assay [2] is T1, EcDXPS. The assay can be described thus: DXPS-IspC coupled assay, aerobic, WT EcDXPS. In kind it is biochemical, E. coli. The conditions noted are these: for MOI varying D-GAP / MOI varying pyruvate: WT EcDXPS, aerobic. The method, then:
Inhibitory activity of compounds against DXPS were monitored via a continuous spectrophotometric coupled assay with DXPS and IspC as previously described.[41],[42] Briefly, Reaction mixtures containing HEPES (100 mM, pH 8.0), MgCl2 (2 mM), NaCl (5 mM), ThDP (1 mM), BSA (1 mg/mL), DXPS (125–500 nM), IspC (1.7 μM), NADPH (160 μM), DMSO (5%, v/v), and inhibitor (0–200 μM) were preincubated at 25 °C (or chamber temperature 25–30 °C) for 5 min. Enzymatic reactions were initiated via the addition of 20 μL of a 10x substrate mix for a final well volume of 200 μL. Reactions were performed in triplicate unless otherwise noted. See the following sections for details and modifications.
When varying pyruvate (0–500 μM), GAP was maintained at 50 μM (3 mM for R478A). When varying GAP (0–500 μM), pyruvate was maintained at 500 μM. The following [DXPS] were used when varying 1: WT EcDXPS, R478A, H431A, D427A (200 nM), R99A (500 nM), WT DrDXPS, WT PaDXPS (150 nM). […] Reactions were incubated and initiated as described above. Immediately following initiation, NADPH depletion was monitored at 340 nm at 25 °C for 7–10 min with a 14–20 second time interval. Initial velocities of DXP formation were determined from the linear portion of the NADPH decay. […] Initial velocities were plotted vs. substrate concentration, and the data were fit to equation 1 (mixed model), 2 (competitive), or 3 (uncompetitive) based on the calculated α value and goodness of fit in GraphPad Prism. Reported standard errors of the mean for Kis are calculated from three replicates.

By Ki is commonly meant a dissociation constant, usually derived from enzyme kinetics or from competition with a known ligand.

`CO/N=C/c1cc(O)c(O)cc1O` [compound 2]: at EcDXPS [1] (footnote a), the MOI varying pyruvate result is on record as “Noncompetitive”. In addition, on EcDXPS [1] (vary pyruvate), the Ki is 15.6 ± 0.7 µM.

Consider `O/[15N]=C/c1cc(O)c(O)cc1O` [compound 8, ^15N-labeled (E)-2,4,5-Trihydroxybenzaldehyde oxime], for which the “redox state after incubation (LR 1H-15N HSQC)” value at DXPS (DXPS 1 μM + pyruvate 2 mM + D-GAP 500 μM, anaerobic) is listed as “readily reduced”; on DXPS (DXPS 1 μM + pyruvate 2 mM, no GAP, anaerobic) it was “fully reduced”; on DXPS (DXPS 1 μM, no substrates), “maintained mostly in the oxidized form”; on DXPS (ascorbate 5 mM control), “Total reduction”; at DXPS (pyruvate 2 mM + D-GAP 500 μM, no DXPS), “Some reduction”.

Take `CC(=O)P(=O)(O)OCCc1cn([C@H](Cc2ccccc2)C(=O)O)nn1` [D-PheTrAP, D-phenylalanine triazol acetyl phosphonate]: the “fold loss in potency on EcR478A” value at R478A DXPS is on record as greater than 30 fold.

As to `CO/N=C/c1ccc(O)c(O)c1` [compound 5], the “inhibitory activity against DXPS” value on EcDXPS [1] is recorded as “lack of potency”.

For the compound `N/N=C/c1cc(O)c(O)cc1O` [compound 3, (E,Z)-5-(hydrazineylidenemethyl)benzene-1,2,4-triol], on EcDXPS [2], the Ki was 17.5 ± 0.6 µM, the “MOI varying D-GAP” value is given as “competitive” and the MOI varying pyruvate entry is “uncompetitive”.

Consider `CO/N=C/c1cc(O)ccc1O` [compound 6], for which, at EcDXPS [1], the “inhibitory activity against DXPS” value is given as “lack of potency”.

Turning to `CN/N=C/c1cc(O)c(O)cc1O` [compound 4], on EcDXPS [2], the “MOI varying D-GAP” value is “mixed” and the MOI varying pyruvate entry was “uncompetitive”. Also, at EcDXPS [1] (determined in the presence of ascorbate), the “potency against DXPS” value was “lacking measurable potency”.
